Like-named read-outs stand apart in the source and are kept apart here.
Columns and labels:
[1] = tested on: L-Type Ca (verapamil); assay: CEREP ion channel-binding; settings: 30 µM
[2] = target: T1, Angiotensin Converting Enzyme (Homo sapiens, UniProt P12821); assay: CEREP enzyme inhibition; format: biochemical
T1 construct: purchased Eurofins Cerep

[3] = Dog pharmacokinetics; format: in vivo, Beagle dog; settings: for Vd: read-out: Vdss
Experimental: from Vital River (Beijing, China) and were typically 7-9 weeks of age at the time of dosing.
During the pharmacokinetic studies all animals were housed individually. Access to food and water was provided ad libitum (i.e., subjects were dosed in the fed state). In the instances where oral (po) dose was administered in the fed state, with ad libitum access to food and water. Compounds were administered intravenously (iv) via the tail vein (n = 2) dosed as a solution (1 mg/kg, 3 ml/kg) or via oral gavage as a solution (10 mg/kg, 10 ml/kg). Dosing solutions were prepared immediately before dosing. The composition of each dosing vehicle […]
Serial blood samples were collected via the jugular vein cannula at predetermined timepoints after dosing. Animals were monitored for pain or distress throughout the study, with at least daily monitoring during normal husbandry prior to study start. At the completion of the study, animals were euthanized by overdose of inhaled carbon dioxide. Blood samples were collected into tubes containing K2EDTA and stored on ice until centrifugation to obtain plasma, which was stored frozen at - 20 °C or lower.
Dog pharmacokinetic studies were done at Pfizer (Groton, CT). All procedures performed on beagle dogs were in accordance with regulations and established guidelines and were reviewed and approved by an Institutional Animal Care and Use Committee through an ethical review process. Male Beagle dogs were purchased from Marshall Bioresources (North Rose, NY); subjects 3 years of age were used in pharmacokinetics studies. For each study (n=2), compounds were dosed iv by cephalic vein as a solution (0.5 mg/kg, 1 mL/kg) or via oral gavage as a suspension (3 mg/kg, 5 mL/kg). In the instances where oral (po) dose was administered in the fed state, dogs were fed a couple hours before dosing. In the instances where the IV dose was administered in the fasted state, dogs were fasted over night and fed 4 hours post dose. Subjects were monitored for pain or distress throughout the study followed by at least daily monitoring while off study. The iv dosing vehicle was optimized such that the compounds were in solution and stable for at least 24 h. Serial blood samples were collected via the jugular vein at predefined time points post-dose. Blood samples were collected into K3EDTA treated collection tubes and were stored on wet ice prior to being centrifuged to obtain plasma, which was stored frozen at - 20 °C or lower.
Monkey pharmacokinetic studies were conducted at Pfizer (Groton, CT). All procedures performed on Cynomolgus monkeys were in accordance with regulations and established guidelines and were reviewed and approved by an Institutional Animal Care and Use Committee through an ethical review process. Male Cynomolgus monkeys were purchased from Envigo Global Services (Indianapolis, IN); subjects 5-8 years of age were used in pharmacokinetic studies. For each study (n=2), compounds were dosed iv by the cephalic vein (typically 1 mg/kg, 2 ml/kg). Subjects were monitored for pain or distress throughout the study followed by at least daily monitoring while off study. The iv dosing vehicle was optimized such that the compounds were in solution and stable for at least 24 h.
Serial blood samples were collected via the femoral vein at predefined time points post-dose. Blood samples were collected into K3EDTA treated collection tubes and were stored on wet ice prior to being centrifuged to obtain plasma, which was stored frozen at -20 °C or […]
LC-MS/MS Analysis of Plasma Samples
Plasma samples were processed using protein precipitation with 50:50 acetonitrile: methanol containing terfenadine (5 ng/ml) as an internal standard followed by quantitation against a standard curve (0.1-1000 ng/ml) prepared in blank plasma. Quantitation of analyte in plasma samples was done using LC-MS/MS. Standard and quality control samples, prepared in blank plasma were extracted in the same manner as the in-life samples. Briefly, a Waters […]

[4] = target: T2, GABAa1 Receptor (Homo sapiens, UniProt P14867); assay: CEREP ion channel-binding
T2 construct: purchased Eurofins Cerep

[5] = target: T3, Cyclooxygenase 2 (Homo sapiens, UniProt P35354); assay: CEREP enzyme inhibition; format: biochemical
T3 construct: purchased Eurofins Cerep
T3 sequence (P35354 18-604): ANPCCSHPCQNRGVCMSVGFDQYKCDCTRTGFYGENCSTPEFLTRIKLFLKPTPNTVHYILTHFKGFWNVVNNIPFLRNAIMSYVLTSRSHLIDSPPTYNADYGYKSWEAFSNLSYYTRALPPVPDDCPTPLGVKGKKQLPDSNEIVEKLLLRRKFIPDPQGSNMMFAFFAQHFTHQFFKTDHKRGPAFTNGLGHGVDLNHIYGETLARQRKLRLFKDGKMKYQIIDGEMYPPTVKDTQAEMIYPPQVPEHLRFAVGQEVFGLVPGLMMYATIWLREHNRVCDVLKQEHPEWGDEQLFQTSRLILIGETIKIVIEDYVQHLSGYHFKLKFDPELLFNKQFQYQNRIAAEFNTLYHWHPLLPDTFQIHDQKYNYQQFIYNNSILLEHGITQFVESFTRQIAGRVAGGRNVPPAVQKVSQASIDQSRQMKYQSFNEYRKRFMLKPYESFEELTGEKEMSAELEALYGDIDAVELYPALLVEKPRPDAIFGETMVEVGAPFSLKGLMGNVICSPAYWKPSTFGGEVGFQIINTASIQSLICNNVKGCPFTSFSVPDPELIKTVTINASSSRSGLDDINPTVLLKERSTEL

[6] = tested on: L-Type Ca (Nifedipine); assay: CEREP ion channel-binding; settings: 30 µM
[7] = target: CYP2C9 (Homo sapiens, UniProt P11712); assay: biochemical
CYP2C9, sequence (P11712 whole entry): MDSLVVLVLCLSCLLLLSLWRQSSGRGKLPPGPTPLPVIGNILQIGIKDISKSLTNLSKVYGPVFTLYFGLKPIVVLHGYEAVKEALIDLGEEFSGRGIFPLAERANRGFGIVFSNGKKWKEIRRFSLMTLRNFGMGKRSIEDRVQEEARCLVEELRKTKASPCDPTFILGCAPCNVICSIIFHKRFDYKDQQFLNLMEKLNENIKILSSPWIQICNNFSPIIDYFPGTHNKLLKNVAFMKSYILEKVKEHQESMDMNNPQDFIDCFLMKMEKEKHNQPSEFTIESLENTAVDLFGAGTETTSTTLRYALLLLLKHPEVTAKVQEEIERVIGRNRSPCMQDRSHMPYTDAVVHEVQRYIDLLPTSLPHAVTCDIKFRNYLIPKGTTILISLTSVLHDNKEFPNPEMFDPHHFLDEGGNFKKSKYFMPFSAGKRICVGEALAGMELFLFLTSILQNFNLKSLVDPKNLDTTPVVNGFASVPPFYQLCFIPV

[8] = tested on: Nicotinic Ach Receptor (muscle); assay: CEREP ion channel-binding; settings: 30 µM
[9] = target: T4, Serotonin Transporter (Homo sapiens, UniProt P31645); assay: CEREP transporters-binding
T4 construct: purchased Eurofins Cerep
T4 sequence (P31645 whole entry): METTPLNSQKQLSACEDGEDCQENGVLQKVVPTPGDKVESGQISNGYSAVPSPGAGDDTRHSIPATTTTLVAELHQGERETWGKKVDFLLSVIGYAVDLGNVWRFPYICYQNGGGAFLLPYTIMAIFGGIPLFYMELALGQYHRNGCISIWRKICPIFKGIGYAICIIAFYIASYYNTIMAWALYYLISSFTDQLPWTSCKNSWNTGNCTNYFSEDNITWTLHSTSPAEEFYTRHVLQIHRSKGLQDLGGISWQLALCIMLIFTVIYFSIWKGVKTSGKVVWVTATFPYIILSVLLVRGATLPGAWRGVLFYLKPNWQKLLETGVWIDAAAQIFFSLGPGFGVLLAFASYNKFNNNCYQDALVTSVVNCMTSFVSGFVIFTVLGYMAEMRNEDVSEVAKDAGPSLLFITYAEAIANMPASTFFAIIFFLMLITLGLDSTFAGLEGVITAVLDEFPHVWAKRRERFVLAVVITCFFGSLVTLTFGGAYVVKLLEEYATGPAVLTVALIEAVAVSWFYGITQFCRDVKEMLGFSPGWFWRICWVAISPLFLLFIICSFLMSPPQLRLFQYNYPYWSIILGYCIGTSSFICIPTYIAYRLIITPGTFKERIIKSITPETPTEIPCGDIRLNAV

[10] = tested on: GABA Transporter; assay: CEREP transporters-binding; settings: 30 µM
[11] = target: T5, PDE4D2 (Homo sapiens, UniProt Q08499); assay: CEREP enzyme inhibition; format: biochemical
T5 construct: purchased Eurofins Cerep
T5 sequence (Q08499 303-809): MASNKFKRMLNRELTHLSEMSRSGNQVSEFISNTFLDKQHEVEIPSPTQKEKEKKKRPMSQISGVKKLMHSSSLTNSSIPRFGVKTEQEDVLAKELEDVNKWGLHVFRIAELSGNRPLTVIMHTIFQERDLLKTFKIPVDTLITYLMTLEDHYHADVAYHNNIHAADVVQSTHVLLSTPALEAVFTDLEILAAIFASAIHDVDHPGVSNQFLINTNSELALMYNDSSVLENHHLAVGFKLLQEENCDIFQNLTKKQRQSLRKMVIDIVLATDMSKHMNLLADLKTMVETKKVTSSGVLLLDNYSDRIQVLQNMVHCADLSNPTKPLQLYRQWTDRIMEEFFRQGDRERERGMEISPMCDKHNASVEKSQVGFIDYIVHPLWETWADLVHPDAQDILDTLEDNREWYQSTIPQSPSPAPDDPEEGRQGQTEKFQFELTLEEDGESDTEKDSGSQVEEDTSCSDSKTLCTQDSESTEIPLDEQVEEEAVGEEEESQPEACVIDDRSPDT

[12] = target: T6, Aurora A Kinase (Homo sapiens, UniProt O14965); assay: CEREP kinase inhibition; format: biochemical
T6 construct: purchased Eurofins Cerep
T6 sequence (O14965 whole entry): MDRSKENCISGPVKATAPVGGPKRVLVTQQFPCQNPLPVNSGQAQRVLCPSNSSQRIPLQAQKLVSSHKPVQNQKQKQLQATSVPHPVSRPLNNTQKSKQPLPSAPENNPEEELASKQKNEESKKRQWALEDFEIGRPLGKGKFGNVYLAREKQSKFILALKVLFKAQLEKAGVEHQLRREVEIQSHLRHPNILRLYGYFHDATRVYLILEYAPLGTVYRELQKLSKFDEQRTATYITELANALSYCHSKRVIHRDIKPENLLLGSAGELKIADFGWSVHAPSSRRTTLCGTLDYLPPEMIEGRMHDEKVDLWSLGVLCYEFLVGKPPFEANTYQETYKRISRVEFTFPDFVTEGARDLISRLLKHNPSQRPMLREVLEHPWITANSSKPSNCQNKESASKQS

[13] = target: MERS_Plpro (Middle East respiratory syndrome-related coronavirus, UniProt K9N7C7); assay: biochemical; set-up: species or system MERS-CoV
MERS_Plpro, sequence (K9N7C7 1552-1823 limits assumed): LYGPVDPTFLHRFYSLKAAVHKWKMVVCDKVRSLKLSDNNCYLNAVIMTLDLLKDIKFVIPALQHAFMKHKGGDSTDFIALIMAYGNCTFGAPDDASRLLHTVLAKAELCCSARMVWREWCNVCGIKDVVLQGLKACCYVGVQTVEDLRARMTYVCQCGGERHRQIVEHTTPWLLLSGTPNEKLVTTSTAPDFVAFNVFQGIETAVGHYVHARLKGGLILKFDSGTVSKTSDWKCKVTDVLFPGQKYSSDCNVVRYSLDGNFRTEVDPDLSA

[14] = target: T7, Serotonin 3 (Homo sapiens, UniProt P46098); assay: CEREP ion channel-binding
T7 construct: purchased Eurofins Cerep
T7 sequence (P46098 24-478): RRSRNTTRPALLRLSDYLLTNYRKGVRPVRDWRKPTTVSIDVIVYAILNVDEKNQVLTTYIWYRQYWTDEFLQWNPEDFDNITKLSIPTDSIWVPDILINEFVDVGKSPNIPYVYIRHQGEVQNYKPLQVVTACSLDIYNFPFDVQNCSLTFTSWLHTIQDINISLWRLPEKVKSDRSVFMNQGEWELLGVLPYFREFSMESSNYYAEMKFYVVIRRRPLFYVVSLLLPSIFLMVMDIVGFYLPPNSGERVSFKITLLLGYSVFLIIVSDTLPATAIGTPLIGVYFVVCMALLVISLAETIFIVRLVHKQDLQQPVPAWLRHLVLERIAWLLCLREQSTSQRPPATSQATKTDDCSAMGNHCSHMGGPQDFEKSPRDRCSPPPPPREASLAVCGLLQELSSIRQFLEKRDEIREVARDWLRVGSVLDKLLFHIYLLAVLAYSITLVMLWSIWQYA

[15] = plasma, Male Beagle Dog, 0.5 mg/kg iv, solution, mean n=2
[16] = plasma, Male Beagle Dog, 3.0 mg/kg po, suspension, mean n=2

T1 sequence (P12821 30-1306): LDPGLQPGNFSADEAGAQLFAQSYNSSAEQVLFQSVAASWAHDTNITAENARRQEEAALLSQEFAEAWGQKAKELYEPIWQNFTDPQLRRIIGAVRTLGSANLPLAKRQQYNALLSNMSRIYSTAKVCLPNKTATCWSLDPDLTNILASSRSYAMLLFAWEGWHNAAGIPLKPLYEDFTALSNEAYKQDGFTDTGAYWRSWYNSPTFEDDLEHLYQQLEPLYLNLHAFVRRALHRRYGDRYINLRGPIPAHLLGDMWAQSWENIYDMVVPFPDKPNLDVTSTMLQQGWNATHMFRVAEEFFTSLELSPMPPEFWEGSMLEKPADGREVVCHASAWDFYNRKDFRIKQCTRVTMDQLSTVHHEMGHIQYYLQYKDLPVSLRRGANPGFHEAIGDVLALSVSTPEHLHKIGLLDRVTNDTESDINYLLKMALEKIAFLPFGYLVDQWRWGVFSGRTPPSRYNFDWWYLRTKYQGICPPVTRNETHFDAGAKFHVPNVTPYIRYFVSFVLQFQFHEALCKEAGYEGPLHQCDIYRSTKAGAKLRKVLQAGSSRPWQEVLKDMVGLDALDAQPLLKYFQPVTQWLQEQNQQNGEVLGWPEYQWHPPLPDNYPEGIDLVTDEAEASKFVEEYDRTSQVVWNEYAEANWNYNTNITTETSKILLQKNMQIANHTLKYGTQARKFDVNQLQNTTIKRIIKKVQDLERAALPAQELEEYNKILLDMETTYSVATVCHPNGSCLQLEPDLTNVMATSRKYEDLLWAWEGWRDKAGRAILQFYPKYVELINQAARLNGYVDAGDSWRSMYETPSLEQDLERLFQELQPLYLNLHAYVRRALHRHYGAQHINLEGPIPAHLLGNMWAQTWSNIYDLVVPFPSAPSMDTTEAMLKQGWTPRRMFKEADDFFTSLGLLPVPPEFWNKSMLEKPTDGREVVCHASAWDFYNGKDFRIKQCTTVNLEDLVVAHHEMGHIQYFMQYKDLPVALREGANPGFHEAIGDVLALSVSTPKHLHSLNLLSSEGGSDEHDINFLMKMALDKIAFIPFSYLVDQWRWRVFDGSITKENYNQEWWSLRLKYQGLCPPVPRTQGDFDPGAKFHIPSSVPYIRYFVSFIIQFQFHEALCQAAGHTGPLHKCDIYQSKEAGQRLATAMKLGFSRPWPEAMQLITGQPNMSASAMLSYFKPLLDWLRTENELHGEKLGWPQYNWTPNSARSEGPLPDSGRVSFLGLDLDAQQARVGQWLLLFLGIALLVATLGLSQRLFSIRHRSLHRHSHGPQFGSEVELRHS

Cc1ccc(N2CCN(C)CC2)cc1C(=O)NC1(c2cc(-c3cnn(C)c3)nc3ccccc23)CC1 [Compound 4]
% inhibition [1]: -19%
inhibition at 30 µM [2]: 14%
Oral F ([3]; Male Beagle Dog, 3.0 mg/kg po, suspension, mean n=2): 41.0%
Vd ([3]; male, Beagle, plasma, 0.5 mg/kg, dog (d), intravenous): 1.59 L/kg
bioavailability ([3]; male, Beagle, plasma, po, 3 mg/kg, dog (d), read-out: Oral F (%)): 41%
AUC(0-inf) [3, 15]: 640 ng·h/mL
half-life [3, 15]: 2.06 h
clearance ([3]; plasma, Male Beagle Dog, 0.5 mg/kg iv, solution, mean n=2, read-out: CLp): 13.4 mL/min/kg
Vd [3, 15]: 1.59 L/kg
AUC(0-inf) [3, 16]: 1580 ng·h/mL
Cmax [3, 16]: 354 ng/mL
Tmax [3, 16]: 1 h
half-life [3, 16]: 2.52 h
inhibition at 30 µM [4]: 10%
inhibition at 30 µM [5]: 36%
% inhibition [6]: -6%
IC50 [7]: > 30 µM
% inhibition [8]: 2%
inhibition at 30 µM [9]: 8%
% inhibition [10]: -4%
inhibition at 30 µM [11]: 20%
inhibition at 30 µM [12]: -1%
Ki [13]: > 10 µM
activity on MERS PL^pro [13]: nearly inactive
inhibition at 30 µM [14]: -10%

— paper PMC11364104, “Discovery of SARS-CoV-2 papain-like protease (PL^pro) inhibitors with efficacy in a murine infection model” (Science Advances, 2024)
